Assay results: US20230022235A1, “DUAL ANDROGEN RECEPTOR/AKR1C3 INHIBITORS” (The Regents of the University of California, priority 2019, published 2023)
“Also recorded” adds a separate entry of the source.

Experiments:
[1] = target: T1, AR (Homo sapiens, UniProt P10275, T878A); experiment: DHT-stimulated AR nuclear translocation in LNCaP cells (immunofluorescent staining); format: cell-based; settings: charcoal stripped FBS
T1 construct: endogenous in cells; host or cells: LNCaP
T1 sequence (P10275 1-920 T878A): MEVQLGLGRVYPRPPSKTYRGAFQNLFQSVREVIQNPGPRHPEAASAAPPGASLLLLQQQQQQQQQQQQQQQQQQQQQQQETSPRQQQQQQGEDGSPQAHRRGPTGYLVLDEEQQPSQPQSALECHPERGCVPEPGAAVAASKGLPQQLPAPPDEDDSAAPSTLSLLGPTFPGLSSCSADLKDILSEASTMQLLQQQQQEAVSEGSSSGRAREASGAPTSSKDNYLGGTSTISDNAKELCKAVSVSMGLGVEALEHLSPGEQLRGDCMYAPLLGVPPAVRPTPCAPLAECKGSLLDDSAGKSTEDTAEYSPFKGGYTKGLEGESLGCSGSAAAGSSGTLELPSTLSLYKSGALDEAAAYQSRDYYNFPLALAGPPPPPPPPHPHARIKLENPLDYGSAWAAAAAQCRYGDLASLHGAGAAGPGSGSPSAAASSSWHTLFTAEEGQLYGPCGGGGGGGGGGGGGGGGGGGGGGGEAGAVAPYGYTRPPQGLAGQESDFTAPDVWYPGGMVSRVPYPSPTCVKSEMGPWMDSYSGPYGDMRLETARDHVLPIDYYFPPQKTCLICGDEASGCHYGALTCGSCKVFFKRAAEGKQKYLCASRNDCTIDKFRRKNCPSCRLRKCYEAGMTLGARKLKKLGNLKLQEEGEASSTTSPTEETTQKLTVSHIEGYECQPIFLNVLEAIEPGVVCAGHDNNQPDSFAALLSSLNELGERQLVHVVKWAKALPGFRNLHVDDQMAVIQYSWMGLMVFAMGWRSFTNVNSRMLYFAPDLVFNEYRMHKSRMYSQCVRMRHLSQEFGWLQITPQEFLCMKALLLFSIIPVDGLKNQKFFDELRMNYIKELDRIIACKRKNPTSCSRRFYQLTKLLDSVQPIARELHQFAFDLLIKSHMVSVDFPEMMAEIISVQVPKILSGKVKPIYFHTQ
Procedure: LNCaP cells cultured in charcoal stripped FBS conditions were treated with DHT and the compounds as indicated. AR expression were visualized by immunofluorescent staining.
(§1) Next, the effects of the new AR/AKR1C3 inhibitors on AR signaling were studied. […] To further confirm the inhibitory role of the compounds in AR signaling, enzalutamide resistant C4-2B MDVR cells (which have enhanced expression of AR, AR variants, and AKR1C3) were treated with 5 μM compound 1, 5 μM compound 5, or a DMSO control. Total RNA was isolated assessed using RNAseq.

[2] = tested on: AR; experiment: RNAseq of AR signaling genes in C4-2B MDVR cells; format: cell-based; settings: 5 μM, vs DMSO control
Procedure: as §1

[3] = tested on: AR-V7; experiment: RNAseq of AR-V7 signature genes in C4-2B MDVR cells; format: cell-based; settings: 5 μM, vs DMSO control
Procedure: as §1

[4] = tested on: C4-2B MDVR cells; experiment: RNAseq of genes associated with cancer cell proliferation and survival in C4-2B MDVR cells; format: cell-based; settings: 5 μM, vs DMSO control
Procedure: In addition, the effect of the compounds on the expression of genes involved in cancer was studied. Enzalutamide resistant C4-2B MDVR cells were treated with 5 μM of compound 1, 2, 5, or 8, or DMSO control.

[5] = tested on: C4-2B MDVR cells; experiment: Cell number of enzalutamide-resistant C4-2B MDVR cells; format: cell-based; settings: 48 hrs
Procedure: C4-2B MDVR cells were treated with increasing doses of compound 1 for 48 hrs.
To evaluate whether compound 1 is an effective inhibitor of anti-androgen resistant cell growth, a series of resistant cells were treated with their respective anti-androgens for 48 hrs. Enzalutamide resistant MDVR cells, abiraterone resistant AbiR cells, apalutamide resistant ApaIR cells, and darolutamide resistant DaroR cells were treated with their respective anti-androgens: enza (20 μM), abi (20 μM), apal (20 μM), darolutamide (20 μM), or compound 1 (5 μM).

[6] = tested on: MCF-7 breast cancer cells; experiment: Cell number of MCF-7 breast cancer cells; format: cell-based; settings: 48 hrs
[7] = tested on: VCaP tumors; experiment: VCaP tumor model in intact SCID mice; format: in vivo; settings: 20 mg/kg I.P. 5 days a week for 3 weeks
Procedure: Next the effects of compound 1 in vivo were studied in two separate models. First, intact SCID mice were injected with resistant prostate cancer VCaP cells suspended in matrigel. Once tumors were palpable, mice were divided into two groups: control or 20 mg/kg compound 1 administered I.P. 5 days a week for 3 weeks. Tumor volumes were measured twice weekly and mouse weights were monitored. At the end of treatment, tumors and serum were collected for assessment.

[8] = tested on: LuCaP35CR tumors; experiment: LuCaP35CR PDX model in castrated SCID mice; format: in vivo
Procedure: The LuCaP35CR PDX model was also employed to investigate the effects of compound 1 in vivo. For this model, SCID mice were castrated and implanted with LuCaP35CR tissues. Once tumors were palpable, mice were divided into two groups: control or 20 mg/kg compound 1 administered I.P. 5 days a week for 3 weeks. Tumor volumes were measured twice weekly and mouse weights were monitored. At the end of treatment, tumors and serum were collected for assessment.

[9] = target: T2, AKR1C3 (Homo sapiens, UniProt P42330); experiment: Ex vivo tumor based AKR1C3 enzyme assay (androstenedione conversion to testosterone); format: cell-based; settings: ex vivo tumors, androstenedione 300 nmol/L, testosterone in supernatants
T2 sequence (P42330 1-323): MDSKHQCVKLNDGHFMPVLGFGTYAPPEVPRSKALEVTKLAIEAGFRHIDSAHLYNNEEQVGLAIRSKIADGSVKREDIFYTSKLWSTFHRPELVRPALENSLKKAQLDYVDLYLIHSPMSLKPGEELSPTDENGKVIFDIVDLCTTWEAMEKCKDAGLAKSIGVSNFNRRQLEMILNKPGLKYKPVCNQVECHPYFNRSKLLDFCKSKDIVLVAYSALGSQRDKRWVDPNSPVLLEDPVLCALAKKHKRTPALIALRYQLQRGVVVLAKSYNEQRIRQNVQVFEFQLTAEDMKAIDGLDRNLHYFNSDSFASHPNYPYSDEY
Procedure: AKR1C3 plays a crucial role in the synthesis of testosterone, by catalyzing the conversion of the adrenal androgens dehydroepiandrosterone (DHEA) and androstenedione (AD) into testosterone. To determine the effects of compound 1 on inhibition of AKR1C3 enzymatic activity an ex vivo tumor based AKR1C3 enzyme assay was conducted. LUCaP35CX tumors, which express high levels of AKR1C3, were digested with 0.1% protease and cultured in medium supplemented with 10% heat-inactivated charcoal-dextran-stripped FBS. After overnight incubation, androstenedione (300 nmol/L) was added with or without compound 1. The supernatants were collected to measure testosterone.

[10] = target: T2, AKR1C3; experiment: Aldo-Keto Reductase (AKR) Activity Assay Kit (Colorimetric) in LNCaP-AKR1C3 cells; format: cell-based; design: expressed in transfected cells; host or cells: LNCaP-AKR1C3; settings: 48 hrs
Procedure: To examine whether compound 1 and compound 2 are useful in inhibiting AKR1C3 activity, LNCaP-AKR1C3 were treated with either compound 1 or compound 2 for 48 hrs. AKR1C3 enzymatic activity was determined by Aldo-Keto Reductase (AKR) Activity Assay Kit (Colorimetric), the results of which are shown in FIG. 2. Similarly, the inhibition of AKR1C3 activity was examined with varying doses of compound 1. LNCaP-AKR1C3 cells were treated with increasing doses of compound 1 for 48 hrs.

[11] = LuCaP35CR PDX, castrated SCID mice, 20 mg/kg I.P. 5 days a week for 3 weeks

SMILES | AR nuclear translocation / DHT-stimulated AR nuclear expression [1] | expression of genes associated with AR signaling (AR activity signature genes) [2] | expression of AR-V7 signature genes [3] | expression of genes associated with cancer cell proliferation and survival [4] | total cell number (cell growth) [5] | total cell number (cell growth), increasing doses ([5]; increasing doses) | total cell number (cell growth), increasing doses [6] | serum PSA ([7]; end of treatment) | mouse body weight ([7]; vs control) | tumor volume / tumor growth ([7]; vs control, 20 mg/kg) | intratumoral testosterone levels [8, 11] | mouse body weight [8, 11] | serum PSA [8, 11] | tumor volume / tumor growth ([8]; LuCaP35CR PDX, castrated SCID mice, 20 mg/kg I.P. 5 days a week for 3 weeks, 20 mg/kg) | tolerability ([8]; conclusion from VCaP and LuCaP35CR mouse models, 20 mg/kg I.P.) | androstenedione conversion to testosterone [9] | AKR1C3 enzymatic activity [10] | AKR1C3 enzymatic activity, increasing doses ([10]; increasing doses)
COc1ccc(Cc2ccc(O)c(C(=O)Nc3cc(C(F)(F)F)cc(C(F)(F)F)c3)c2)cc1 [compound 5, N-(3,5-bis(trifluoromethyl)phenyl)-2-hydroxy-5-(4-methoxybenzyl)benzamide] | capable of inhibiting DHT-stimulated AR nuclear expression; also recorded: inhibit AR nuclear translocation | greatly reduced expression of genes associated with AR signaling; also recorded: inhibit AR activity signature genes | reduced expression of AR-V7 signature genes; also recorded: inhibit AR-V7 activity signature genes | greatly reduced expression of genes associated with cancer cell proliferation and survival; also recorded: inhibit genes associated with cancer cell proliferation and survival |  |  |  |  |  |  |  |  |  |  |  |  |  | 
O=C(Nc1cc(C(F)(F)F)cc(C(F)(F)F)c1)c1cc(Cc2ccccc2)ccc1O [compound 1, 5-benzyl-N-(3,5-bis(trifluoromethyl)phenyl)-2-hydroxybenzamide] | capable of inhibiting DHT-stimulated AR nuclear expression; also recorded: inhibit AR nuclear translocation | greatly reduced expression of genes associated with AR signaling; also recorded: inhibit AR activity signature genes | reduced expression of AR-V7 signature genes; also recorded: inhibit AR-V7 activity signature genes | greatly reduced expression of genes associated with cancer cell proliferation and survival; also recorded: inhibit genes associated with cancer cell proliferation and survival | inhibit cell growth | inhibited in dose-dependent fashion | inhibited in dose dependent fashion | significantly decreased | no effect on mouse body weight | significantly decreased tumor volume; also recorded: inhibits VCaP tumor growth | significantly reduced intratumoral testosterone levels | no effect on mouse body weight | reduced | significantly decreased tumor volumes; also recorded: inhibits LuCaP35CR tumor growth | well-tolerated | dose-dependent inhibition; also recorded: inhibits the conversion from androstenedione to testosterone | inhibit AKR1C3 activity | inhibited in dose-dependent fashion
COc1ccc(C(=O)c2ccc(O)c(C(=O)Nc3cc(C(F)(F)F)cc(C(F)(F)F)c3)c2)cc1 [compound 8, N-(3,5-Bis(trifluoromethyl)phenyl)-2-hydroxy-5-(4-methoxybenzoyl)benzamide] |  |  |  | greatly reduced expression of genes associated with cancer cell proliferation and survival; also recorded: inhibit genes associated with cancer cell proliferation and survival |  |  |  |  |  |  |  |  |  |  |  |  |  | 
